Reference: US7553864B2, “Compounds for the treatment of inflammatory disorders and microbial diseases” (Schering Corporation, priority 2005, dated 2009)

Tested on: LpxC enzyme
Assay: LpxC enzyme assay (RapidFire high-throughput mass spectrometry)
Assay type: biochemical
Details: concentration 0.10 (unit not given)
Procedure: The standard LpxC assay consists of 0.2 nM LpxC enzyme, 1.0 μM UDP-3-O—(R-3-hydroxymyristoyl)-N-acetylglucosamine, and test compound, in assay buffer and 2% DMSO. Assay buffer is comprised of 25 mM HEPES, pH 7.3, 150 mM NaCl, 2.0 mM DTT, and 0.01% BSA. The enzyme reaction is carried out in a 96-well assay plate, in a final volume of 102 μL. Solutions of test compounds are prepared in 100% DMSO. Reaction additions, in order, are (1) 2.0 μL compound solution, (2) 80 μL of assay buffer, (3) 10 μL of 10 μM UDP-3-O—(R-3-hydroxymyristoyl)-N-acetylglucosamine (in assay buffer) and, (4) 10 μL of LpxC enzyme (20 nM in assay buffer) to initiate the reaction. In positive control reactions, addition (1) has 2.0 μL of 100% DMSO (without compound); these reactions are used as the total signal (TSB) value. Reactions are incubated at room temperature for 60 minutes when 10 μL of 1 N HCl is added to stop the reaction. The plate is shaken by hand for 10 seconds to ensure complete quenching. Assay plates are sealed with foil tape, and stored at −80° C. for 24-48 hr prior to analysis.
The concentrations of substrate and product in the reaction mixtures are determined with BioTrove's proprietary RapidFire™ high-throughput mass spectrometry (HTMS). Assay mixtures are partially purified with reverse phase chromatography, where they are washed with water containing 5 mM ammonium formate and eluted onto the mass spectrometer in 80% acetonitrile, 20% water, and 5 mM ammonium formate. The mass spectrometry peak areas of the substrate and product are measured to determine the concentration of these analytes. The assay signal is the percentage of substrate that is converted to product. Percent inhibition, % I, in test samples is determined from the following equation: […]

Row | Compound | LpxC enzyme assay rating (% inhibition at indicated concentrations)
1 | CNC(=O)[C@H](O)[C@@H](O)C(=O)Nc1ccc(OCCCN(C)C)cc1 [Compound 40] | C (less than 10% inhibition)
2 | CNC(=O)[C@H](O)[C@@H](O)C(=O)Nc1ccc(-n2cccn2)cc1 [Compound 41] | C (less than 10% inhibition)
3 | CNC(=O)[C@H](O)[C@@H](O)C(=O)Nc1ccc(-c2cc[nH]n2)cc1 [Compound 42] | C (less than 10% inhibition)
4 | CN(C)C(=O)[C@H](O)[C@@H](O)C(=O)Nc1ccc(C#Cc2ccccc2)cc1 [Compound 43] | C (less than 10% inhibition)
5 | CN(C)C(=O)[C@H](O)[C@@H](O)C(=O)n1ccc2cc(C#Cc3ccccc3)ccc21 [Compound 44] | C (less than 10% inhibition)

Same assay, conditions: concentration 0.20 (unit not given)

Row | Compound | LpxC enzyme assay rating (% inhibition at indicated concentrations)
6 | CNC(=O)[C@H](O)[C@@H](O)C(=O)Nc1ccc(OCCCN(C)C)cc1 [Compound 40] | C (less than 10% inhibition)
7 | CNC(=O)[C@H](O)[C@@H](O)C(=O)Nc1ccc(-n2cccn2)cc1 [Compound 41] | C (less than 10% inhibition)
8 | CNC(=O)[C@H](O)[C@@H](O)C(=O)Nc1ccc(-c2cc[nH]n2)cc1 [Compound 42] | C (less than 10% inhibition)
9 | CN(C)C(=O)[C@H](O)[C@@H](O)C(=O)Nc1ccc(C#Cc2ccccc2)cc1 [Compound 43] | B (10-30% inhibition)
10 | CN(C)C(=O)[C@H](O)[C@@H](O)C(=O)n1ccc2cc(C#Cc3ccccc3)ccc21 [Compound 44] | B (10-30% inhibition)

Same assay, conditions: concentration 0.39 (unit not given)

Row | Compound | LpxC enzyme assay rating (% inhibition at indicated concentrations)
11 | CNC(=O)[C@H](O)[C@@H](O)C(=O)Nc1ccc(OCCCN(C)C)cc1 [Compound 40] | C (less than 10% inhibition)
12 | CNC(=O)[C@H](O)[C@@H](O)C(=O)Nc1ccc(-n2cccn2)cc1 [Compound 41] | C (less than 10% inhibition)
13 | CNC(=O)[C@H](O)[C@@H](O)C(=O)Nc1ccc(-c2cc[nH]n2)cc1 [Compound 42] | B (10-30% inhibition)
14 | CN(C)C(=O)[C@H](O)[C@@H](O)C(=O)Nc1ccc(C#Cc2ccccc2)cc1 [Compound 43] | C (less than 10% inhibition)
15 | CN(C)C(=O)[C@H](O)[C@@H](O)C(=O)n1ccc2cc(C#Cc3ccccc3)ccc21 [Compound 44] | C (less than 10% inhibition)

Same assay, conditions: concentration 0.78 (unit not given)

Row | Compound | LpxC enzyme assay rating (% inhibition at indicated concentrations)
16 | CNC(=O)[C@H](O)[C@@H](O)C(=O)Nc1ccc(OCCCN(C)C)cc1 [Compound 40] | B (10-30% inhibition)
17 | CNC(=O)[C@H](O)[C@@H](O)C(=O)Nc1ccc(-n2cccn2)cc1 [Compound 41] | C (less than 10% inhibition)
18 | CNC(=O)[C@H](O)[C@@H](O)C(=O)Nc1ccc(-c2cc[nH]n2)cc1 [Compound 42] | B (10-30% inhibition)
19 | CN(C)C(=O)[C@H](O)[C@@H](O)C(=O)Nc1ccc(C#Cc2ccccc2)cc1 [Compound 43] | C (less than 10% inhibition)
20 | CN(C)C(=O)[C@H](O)[C@@H](O)C(=O)n1ccc2cc(C#Cc3ccccc3)ccc21 [Compound 44] | C (less than 10% inhibition)

Same assay, conditions: concentration 1.56 (unit not given)

Row | Compound | LpxC enzyme assay rating (% inhibition at indicated concentrations)
21 | CNC(=O)[C@H](O)[C@@H](O)C(=O)Nc1ccc(OCCCN(C)C)cc1 [Compound 40] | C (less than 10% inhibition)
22 | CNC(=O)[C@H](O)[C@@H](O)C(=O)Nc1ccc(-n2cccn2)cc1 [Compound 41] | B (10-30% inhibition)
23 | CNC(=O)[C@H](O)[C@@H](O)C(=O)Nc1ccc(-c2cc[nH]n2)cc1 [Compound 42] | B (10-30% inhibition)
24 | CN(C)C(=O)[C@H](O)[C@@H](O)C(=O)Nc1ccc(C#Cc2ccccc2)cc1 [Compound 43] | B (10-30% inhibition)
25 | CN(C)C(=O)[C@H](O)[C@@H](O)C(=O)n1ccc2cc(C#Cc3ccccc3)ccc21 [Compound 44] | C (less than 10% inhibition)

Same assay, conditions: concentration 3.13 (unit not given)

Row | Compound | LpxC enzyme assay rating (% inhibition at indicated concentrations)
26 | CNC(=O)[C@H](O)[C@@H](O)C(=O)Nc1ccc(OCCCN(C)C)cc1 [Compound 40] | C (less than 10% inhibition)
27 | CNC(=O)[C@H](O)[C@@H](O)C(=O)Nc1ccc(-n2cccn2)cc1 [Compound 41] | B (10-30% inhibition)
28 | CNC(=O)[C@H](O)[C@@H](O)C(=O)Nc1ccc(-c2cc[nH]n2)cc1 [Compound 42] | C (less than 10% inhibition)
29 | CN(C)C(=O)[C@H](O)[C@@H](O)C(=O)Nc1ccc(C#Cc2ccccc2)cc1 [Compound 43] | B (10-30% inhibition)
30 | CN(C)C(=O)[C@H](O)[C@@H](O)C(=O)n1ccc2cc(C#Cc3ccccc3)ccc21 [Compound 44] | B (10-30% inhibition)

Same assay, conditions: concentration 6.25 (unit not given)

Row | Compound | LpxC enzyme assay rating (% inhibition at indicated concentrations)
31 | CNC(=O)[C@H](O)[C@@H](O)C(=O)Nc1ccc(OCCCN(C)C)cc1 [Compound 40] | C (less than 10% inhibition)
32 | CNC(=O)[C@H](O)[C@@H](O)C(=O)Nc1ccc(-n2cccn2)cc1 [Compound 41] | B (10-30% inhibition)
33 | CNC(=O)[C@H](O)[C@@H](O)C(=O)Nc1ccc(-c2cc[nH]n2)cc1 [Compound 42] | B (10-30% inhibition)
34 | CN(C)C(=O)[C@H](O)[C@@H](O)C(=O)Nc1ccc(C#Cc2ccccc2)cc1 [Compound 43] | B (10-30% inhibition)
35 | CN(C)C(=O)[C@H](O)[C@@H](O)C(=O)n1ccc2cc(C#Cc3ccccc3)ccc21 [Compound 44] | B (10-30% inhibition)

Same assay, conditions: concentration 12.50 (unit not given)

Row | Compound | LpxC enzyme assay rating (% inhibition at indicated concentrations)
36 | CNC(=O)[C@H](O)[C@@H](O)C(=O)Nc1ccc(OCCCN(C)C)cc1 [Compound 40] | B (10-30% inhibition)
37 | CNC(=O)[C@H](O)[C@@H](O)C(=O)Nc1ccc(-n2cccn2)cc1 [Compound 41] | C (less than 10% inhibition)
38 | CNC(=O)[C@H](O)[C@@H](O)C(=O)Nc1ccc(-c2cc[nH]n2)cc1 [Compound 42] | B (10-30% inhibition)
39 | CN(C)C(=O)[C@H](O)[C@@H](O)C(=O)Nc1ccc(C#Cc2ccccc2)cc1 [Compound 43] | A (greater than 30% inhibition)
40 | CN(C)C(=O)[C@H](O)[C@@H](O)C(=O)n1ccc2cc(C#Cc3ccccc3)ccc21 [Compound 44] | A (greater than 30% inhibition)

Same assay, conditions: concentration 25 (unit not given)

Row | Compound | LpxC enzyme assay rating (% inhibition at indicated concentrations)
41 | CNC(=O)[C@H](O)[C@@H](O)C(=O)Nc1ccc(OCCCN(C)C)cc1 [Compound 40] | B (10-30% inhibition)
42 | CNC(=O)[C@H](O)[C@@H](O)C(=O)Nc1ccc(-n2cccn2)cc1 [Compound 41] | B (10-30% inhibition)
43 | CNC(=O)[C@H](O)[C@@H](O)C(=O)Nc1ccc(-c2cc[nH]n2)cc1 [Compound 42] | B (10-30% inhibition)
44 | CN(C)C(=O)[C@H](O)[C@@H](O)C(=O)Nc1ccc(C#Cc2ccccc2)cc1 [Compound 43] | A (greater than 30% inhibition)
45 | CN(C)C(=O)[C@H](O)[C@@H](O)C(=O)n1ccc2cc(C#Cc3ccccc3)ccc21 [Compound 44] | A (greater than 30% inhibition)

Same assay, conditions: concentration 50 (unit not given)

Row | Compound | LpxC enzyme assay rating (% inhibition at indicated concentrations)
46 | CNC(=O)[C@H](O)[C@@H](O)C(=O)Nc1ccc(OCCCN(C)C)cc1 [Compound 40] | C (less than 10% inhibition)
47 | CNC(=O)[C@H](O)[C@@H](O)C(=O)Nc1ccc(-n2cccn2)cc1 [Compound 41] | B (10-30% inhibition)
48 | CNC(=O)[C@H](O)[C@@H](O)C(=O)Nc1ccc(-c2cc[nH]n2)cc1 [Compound 42] | C (less than 10% inhibition)
49 | CN(C)C(=O)[C@H](O)[C@@H](O)C(=O)Nc1ccc(C#Cc2ccccc2)cc1 [Compound 43] | A (greater than 30% inhibition)
50 | CN(C)C(=O)[C@H](O)[C@@H](O)C(=O)n1ccc2cc(C#Cc3ccccc3)ccc21 [Compound 44] | A (greater than 30% inhibition)
